Like-named read-outs stand apart in the source and are kept apart here.
Assays:
CDK7 = target: T1, CDK7 (Homo sapiens, UniProt P50613); assay: CDK7 enzyme inhibition test; type: biochemical; conditions: [γ-33P]ATP, MBP substrate, 60 min preincubation at 25°C; Ki=IC50/(1+S/Km); read-out: Ki value of CDK7 inhibitory activity
T1 construct: purchased Carna Biosciences, Inc. 04-108
Method in brief: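 Commercial human CDK7 with myelin basic protein substrate in HEPES pH 7.4 buffer with DTT, Triton X-100, MgCl2; compound preincubated 60 min at 25° C, then reaction run 20 min at 30° C after adding [γ-^33P]ATP (500 μM solution). TCA-precipitated ^33P-MBP counted by scintillation; IC50 converted to Ki via Ki=IC50/(1+S/Km).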

[1] = system: human large intestine cancer cell line (HCT-116); assay: Human large intestine cancer (HCT-116) cell growth inhibition test; type: cell-based
Method in brief: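 HCT-116 cells were seeded at 0.5 to 2.0×10^3 cells/well in McCoy's 5A with 10% FBS and dosed with compound at 0.1% final DMSO after overnight culture. Growth was measured by sulforhodamine B absorbance after 3 days. GI50 was calculated from the inhibition rate at each concentration.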

[2] = system: human large intestine cancer cell (HCT 116) tumor; assay: Tumor growth inhibition test in HCT 116-subcutaneously transplanted nude mouse; type: in vivo; conditions: dose of 100 mg/kg, repeated oral administration, HCT-116 in female BALB nude mice, control group = 100%, read-out: rate of suppression of tumor volume
Experimental: A human large intestine cancer cell line (HCT-116) was cultured in a McCoy's 5A medium containing 10% FBS and 1% penicillin/streptomycin/amphotericin B and adjusted to 1.0×10^8 cells/mL with PBS or Hanks solution (HBSS(−)). The prepared cell suspension was subcutaneously injected at 0.1 mL/mouse to the right abdomens of female BALB nude mice (supplied by Charles River Laboratories Japan, Inc.). After rearing for a certain period, the long diameter (mm) and short diameter (mm) of tumor were measured with electronic calipers, and the tumor volume was calculated according to the following expression: Tumor volume (mm^3)=(Long diameter)×(Short diameter)×(Short diameter)×0.5
Individuals whose tumor volume was within the range of 50 to 200 mm^3 were selected and grouped such that the tumor volume was almost equivalent, then a test compound or only a solvent was orally administered in a repeated manner, and the body weights and tumor volume were measured. A test compound was suspended in a 0.5 w/v % aqueous methylcellulose solution (0.5% MC) (manufactured by Wako Pure Chemical Industries, Ltd.) and orally administered at 10 mL/kg in a repeated manner. When the tumor volume of the control group was defined as 100%, the rate of suppression of tumor volume (%) at each dose of the test compound was calculated.

[3] = HCT-116 (row of Table 50), read-out: GI50 value (concentration necessary for inhibiting 50% of cell growth)
[4] = HCT-116, 72 h, culture for 3 days, sulforhodamine B, read-out: GI50 value, HCT-116 cell growth inhibition

T1 sequence (P50613 whole entry): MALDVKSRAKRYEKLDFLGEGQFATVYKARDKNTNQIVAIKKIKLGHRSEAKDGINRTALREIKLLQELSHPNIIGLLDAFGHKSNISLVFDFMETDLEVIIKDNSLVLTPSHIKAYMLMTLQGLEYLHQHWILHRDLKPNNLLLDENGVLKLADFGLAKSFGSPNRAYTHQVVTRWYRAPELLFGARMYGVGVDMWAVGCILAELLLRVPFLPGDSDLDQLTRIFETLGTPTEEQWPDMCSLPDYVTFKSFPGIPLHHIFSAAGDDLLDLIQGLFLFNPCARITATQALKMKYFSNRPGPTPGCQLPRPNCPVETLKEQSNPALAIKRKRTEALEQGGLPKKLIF
T1 sequence (P51946 whole entry partner): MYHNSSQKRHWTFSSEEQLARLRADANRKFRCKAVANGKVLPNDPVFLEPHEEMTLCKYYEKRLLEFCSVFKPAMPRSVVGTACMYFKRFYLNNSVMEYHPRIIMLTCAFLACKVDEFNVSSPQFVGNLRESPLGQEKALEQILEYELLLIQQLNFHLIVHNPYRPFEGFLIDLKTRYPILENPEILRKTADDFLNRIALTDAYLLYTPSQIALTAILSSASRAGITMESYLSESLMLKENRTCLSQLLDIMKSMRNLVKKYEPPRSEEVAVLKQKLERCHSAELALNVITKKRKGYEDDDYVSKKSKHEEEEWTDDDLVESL
T1 sequence (P51948 whole entry partner): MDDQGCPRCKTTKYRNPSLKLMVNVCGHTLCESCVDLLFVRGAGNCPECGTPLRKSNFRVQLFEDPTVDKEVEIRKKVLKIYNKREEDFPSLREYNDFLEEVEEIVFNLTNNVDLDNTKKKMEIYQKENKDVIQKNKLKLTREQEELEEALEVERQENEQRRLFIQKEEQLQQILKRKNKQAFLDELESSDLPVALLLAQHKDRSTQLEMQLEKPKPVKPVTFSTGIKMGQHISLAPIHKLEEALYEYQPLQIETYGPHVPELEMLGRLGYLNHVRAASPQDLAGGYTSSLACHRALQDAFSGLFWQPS

SMILES | Ki (CDK7) | GI50 [1, 3] | GI50 [1, 4] | inhibition in vivo at 100 mg/kg [2]
CC1(C)c2[nH]nc(NC(=O)C3([Si](C)(C)C)CCC3)c2CN1C(=O)Nc1ccccc1F [IV-3, N-(2-Fluorophenyl)-6,6-dimethyl-3-[1-(trimethylsilyl)cyclobutanecarboxamido]-4,6-dihydropyrrolo[3,4-c]pyrazole-5(1H)-carboxamide] | ≤ 50 nM | < 300 nM | ≤ 100 nM | ≥ 50%
CC1(C)c2[nH]nc(NC(=O)C3([Si](C)(C)C)CCC3)c2CN1C(=O)Nc1ccccc1Br [IV-15, N-(2-Bromophenyl)-6,6-dimethyl-3-[1-(trimethylsilyl)cyclobutanecarboxamido]-4,6-dihydropyrrolo[3,4-c]pyrazole-5(1H)-carboxamide] | ≤ 50 nM | – | ≤ 100 nM | ≥ 50%
Cc1ccccc1NC(=O)N1Cc2c(NC(=O)C3([Si](C)(C)C)CCC3)n[nH]c2C1(C)C [IV-21, 6,6-Dimethyl-N-(o-tolyl)-3-[1-(trimethylsilyl)cyclobutanecarboxamido]-4,6-dihydropyrrolo[3,4-c]pyrazole-5(1H)-carboxamide] | ≤ 50 nM | – | ≤ 100 nM | ≥ 50%
CC1(C)c2[nH]nc(NC(=O)C3([Si](C)(C)C)CCC3)c2CN1C(=O)Nc1c(F)cccc1Cl [IV-113, N-(2-Chloro-6-fluorophenyl)-6,6-dimethyl-3-[1-(trimethylsilyl)cyclobutanecarboxamido]-4,6-dihydropyrrolo[3,4-c]pyrazole-5(1H)-carboxamide] | ≤ 50 nM | – | ≤ 100 nM | ≥ 50%
Cc1ccc(F)c(NC(=O)N2Cc3c(NC(=O)C4([Si](C)(C)C)CCC4)n[nH]c3C2(C)C)c1 [IV-127, N-(2-Fluoro-5-methylphenyl)-6,6-dimethyl-3-[1-(trimethylsilyl)cyclobutanecarboxamido]-4,6-dihydropyrrolo[3,4-c]pyrazole-5 (1H)-carboxamide] | ≤ 50 nM | – | ≤ 100 nM | ≥ 50%
Cc1cccc(F)c1NC(=O)N1Cc2c(NC(=O)C3([Si](C)(C)C)CCC3)n[nH]c2C1(C)C [IV-129, N-(2-Fluoro-6-methylphenyl)-6,6-dimethyl-3-[1-(trimethylsilyl)cyclobutanecarboxamido]-4,6-dihydropyrrolo[3,4-c]pyrazole-5 (1H)-carboxamide] | ≤ 50 nM | – | ≤ 100 nM | –
CCc1cccc(F)c1NC(=O)N1Cc2c(NC(=O)C3([Si](C)(C)C)CCC3)n[nH]c2C1(C)C [IV-137, N-(2-Ethyl-6-fluorophenyl)-6,6-dimethyl-3-[1-(trimethylsilyl)cyclobutanecarboxamido]-4,6-dihydropyrrolo[3,4-c]pyrazole-5(1H)-carboxamide] | ≤ 50 nM | – | ≤ 100 nM | –
COc1cccc(F)c1NC(=O)N1Cc2c(NC(=O)C3([Si](C)(C)C)CCC3)n[nH]c2C1(C)C [IV-161, N-(2-Fluoro-6-methoxyphenyl)-6,6-dimethyl-3-[1-(trimethylsilyl)cyclobutanecarboxamido]-4,6-dihydropyrrolo[3,4-c]pyrazole-5(1H)-carboxamide] | ≤ 50 nM | – | ≤ 100 nM | –
CC1(C)c2[nH]nc(NC(=O)C3([Si](C)(C)C)CCC3)c2CN1C(=O)Nc1c(F)cccc1OC(F)F [IV-169, N-[2-(Difluoromethoxy)-6-fluorophenyl]-6,6-dimethyl-3-[1-(trimethylsilyl)cyclobutanecarboxamido]-4,6-dihydropyrrolo[3,4-c]pyrazole-5(1H)-carboxamide] | ≤ 50 nM | – | ≤ 100 nM | –
CC1(C)c2[nH]nc(NC(=O)C3([Si](C)(C)C)CCC3)c2CN1C(=O)Nc1c(Cl)cccc1Cl [IV-199, N-(2,6-Dichlorophenyl)-6,6-dimethyl-3-[1-(trimethylsilyl)cyclobutanecarboxamido]-4,6-dihydropyrrolo[3,4-c]pyrazole-5(1H)-carboxamide] | ≤ 50 nM | – | ≤ 100 nM | ≥ 50%
Cc1cccc(Cl)c1NC(=O)N1Cc2c(NC(=O)C3([Si](C)(C)C)CCC3)n[nH]c2C1(C)C [IV-215, N-(2-Chloro-6-methylphenyl)-6,6-dimethyl-3-[1-(trimethylsilyl)cyclobutanecarboxamido]-4,6-dihydropyrrolo[3,4-c]pyrazole-5 (1H)-carboxamide] | ≤ 50 nM | < 300 nM | ≤ 100 nM | ≥ 50%
COc1cccc(Cl)c1NC(=O)N1Cc2c(NC(=O)C3([Si](C)(C)C)CCC3)n[nH]c2C1(C)C [IV-247, N-(2-Chloro-6-methoxyphenyl)-6,6-dimethyl-3-[1-(trimethylsilyl)cyclobutanecarboxamido]-4,6-dihydropyrrolo[3,4-c]pyrazole-5(1H)-carboxamide] | ≤ 50 nM | – | ≤ 100 nM | –
Cc1cccc(Br)c1NC(=O)N1Cc2c(NC(=O)C3([Si](C)(C)C)CCC3)n[nH]c2C1(C)C [IV-299, N-(2-Bromo-6-methylphenyl)-6,6-dimethyl-3-[1-(trimethylsilyl)cyclobutanecarboxamido]-4,6-dihydropyrrolo[3,4-c]pyrazole-5 (1H)-carboxamide] | ≤ 50 nM | < 300 nM | ≤ 100 nM | ≥ 50%
Cc1cc(F)ccc1NC(=O)N1Cc2c(NC(=O)C3([Si](C)(C)C)CCC3)n[nH]c2C1(C)C [IV-359, N-(4-Fluoro-2-methylphenyl)-6,6-dimethyl-3-[1-(trimethylsilyl)cyclobutanecarboxamido]-4,6-dihydropyrrolo[3,4-c]pyrazole-5 (1H)-carboxamide] | ≤ 50 nM | – | ≤ 100 nM | ≥ 50%
Cc1ccc(F)cc1NC(=O)N1Cc2c(NC(=O)C3([Si](C)(C)C)CCC3)n[nH]c2C1(C)C [IV-361, N-(5-Fluoro-2-methylphenyl)-6,6-dimethyl-3-[1-(trimethylsilyl)cyclobutanecarboxamido]-4,6-dihydropyrrolo[3,4-c]pyrazole-5 (1H)-carboxamide] | ≤ 50 nM | < 300 nM | ≤ 100 nM | ≥ 50%
Cc1ccc(C)c(NC(=O)N2Cc3c(NC(=O)C4([Si](C)(C)C)CCC4)n[nH]c3C2(C)C)c1 [IV-379, N-(2,5-Dimethylphenyl)-6,6-dimethyl-3-[1-(trimethylsilyl)cyclobutanecarboxamido]-4,6-dihydropyrrolo[3,4-c]pyrazole-5(1H)-carboxamide] | ≤ 50 nM | < 300 nM | ≤ 100 nM | ≥ 50%
CCc1cccc(C)c1NC(=O)N1Cc2c(NC(=O)C3([Si](C)(C)C)CCC3)n[nH]c2C1(C)C [IV-389, N-(2-Ethyl-6-methylphenyl)-6,6-dimethyl-3-[1-(trimethylsilyl)cyclobutanecarboxamido]-4,6-dihydropyrrolo[3,4-c]pyrazole-5 (1H)-carboxamide] | ≤ 50 nM | – | ≤ 100 nM | ≥ 50%
CC1(C)c2[nH]nc(NC(=O)C3([Si](C)(C)C)CCC3)c2CN1C(=O)Nc1c(F)ccc(F)c1F [IV-597, 6,6-Dimethyl-N-(2,3,6-trifluorophenyl)-3-[1-(trimethylsilyl)cyclobutanecarboxamido]-4,6-dihydropyrrolo[3,4-c]pyrazole-5(1H)-carboxamide] | ≤ 50 nM | – | ≤ 100 nM | ≥ 50%
Cc1ccc(C)c(NC(=O)N2Cc3c(NC(=O)C4([Si](C)(C)C)CCC4)n[nH]c3C2(C)C)c1F [IV-669, N-(2-Fluoro-3,6-dimethylphenyl)-6,6-dimethyl-3-[1-(trimethylsilyl)cyclobutanecarboxamido]-4,6-dihydropyrrolo[3,4-c]pyrazole-5(1H)-carboxamide] | ≤ 50 nM | < 300 nM | ≤ 100 nM | ≥ 50%
CC1(C)c2[nH]nc(NC(=O)C3([Si](C)(C)C)CCC3)c2CN1C(=O)Nc1c(F)ccc2ccoc12 [IV-1049, N-(6-Fluorobenzofuran-7-yl)-6,6-dimethyl-3-[1-(trimethylsilyl)cyclobutanecarboxamido]-4,6-dihydropyrrolo[3,4-c]pyrazole-5 (1H)-carboxamide] | ≤ 50 nM | < 300 nM | ≤ 100 nM | ≥ 50%

Reference: patent US10894798B2, “Substituted dihydropyrrolopyrazole derivative” (UBE INDUSTRIES, LTD., priority 2015, dated 2021)
